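Growth conditions: 96-well plates. Treatment: test compound, 48 hours, 5 concentrations. Analysis: linear interpolation between bracketing concentrations; unreached endpoints set to highest concentration. GI50 marks 50% less growth.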 Active and inactive are the calls of the source. Cut-off read from the data, not from the text of the source: active = GI50 up to about 1.1 µM and inactive = higher.
How the values were obtained:
Assay in all cases: inhibition of tumour cell growth, NCI panel, 48 h
CAKI-1 = tested on: CAKI-1
HCT-116 = tested on: HCT-116
HCT-15 = tested on: HCT-15
HL-60 = tested on: HL-60
K562 = tested on: K562
KM12 = tested on: KM12
MDA-MB-231 = tested on: MDA-MB-231
MDA-MB-435 = tested on: MDA-MB-435
MDA-N = tested on: MDA-N
Malme-3M = tested on: Malme-3M
SK-MEL-5 = tested on: SK-MEL-5
SR = tested on: SR
TK-10 = tested on: TK-10
U-251 = tested on: U-251
HOP-92 = tested on: HOP-92
M14 = tested on: M14
OVCAR-4 = tested on: OVCAR-4
SK-MEL-2 = tested on: SK-MEL-2

Row | SMILES | GI50 (CAKI-1) | GI50 (HCT-116) | GI50 (HCT-15) [µM] | GI50 (HL-60) | GI50 (K562) | GI50 (KM12) | GI50 (MDA-MB-231) | GI50 (MDA-MB-435) | GI50 (MDA-N) | GI50 (Malme-3M) | GI50 (SK-MEL-5) | GI50 (SR) | GI50 (TK-10) | GI50 (U-251) | GI50 (HOP-92) | GI50 (M14) | GI50 (OVCAR-4) | GI50 (SK-MEL-2)
1 | COC1=C2C[C@](OC)(C#CC=CC#CC2O)CC1(C)C (some centres undefined) | > 100 µM (inactive) | > 100 µM (inactive) | > 100 | 55 µM (inactive) | 54.8 µM (inactive) | > 100 µM (inactive) | > 100 µM (inactive) | > 100 µM (inactive) | > 100 µM (inactive) | > 100 µM (inactive) | > 100 µM (inactive) | 56.4 µM (inactive) | > 100 µM (inactive) | > 100 µM (inactive) |  |  |  | 
2 | COc1ccc(/C=N/NS(=O)(=O)c2ccc(/C=C3\NC(=O)NC3=O)cc2)cc1 | > 100 µM (inactive) | > 100 µM (inactive) | > 100 | 98.6 µM (inactive) | > 100 µM (inactive) | > 100 µM (inactive) | 11.2 µM (inactive) | > 100 µM (inactive) | > 100 µM (inactive) | > 100 µM (inactive) | > 100 µM (inactive) |  | > 100 µM (inactive) | 45.2 µM (inactive) | > 100 µM (inactive) | > 100 µM (inactive) | > 100 µM (inactive) | > 100 µM (inactive)
3 | CCOC(=O)n1cncc1CC(NC(=O)Cc1c(C(=O)C=C(C)C)[nH]c2ccccc12)C(=O)OC (centres undefined) | 17.9 µM (inactive) | 27.9 µM (inactive) | 19.1 | 18 µM (inactive) | 33.7 µM (inactive) | 19.3 µM (inactive) | 15.5 µM (inactive) | 18.2 µM (inactive) | 23 µM (inactive) | 17.2 µM (inactive) | 18 µM (inactive) | 3.56 µM (inactive) | 18.2 µM (inactive) | 19.5 µM (inactive) | 12 µM (inactive) | 15.6 µM (inactive) | 18.5 µM (inactive) | 17 µM (inactive)
4 | COC(=O)[C@@H]1CN(C(=O)c2ccccc2)C(=O)N1C(=O)OCc1ccccc1 | > 100 µM (inactive) | > 100 µM (inactive) | > 100 | > 100 µM (inactive) | > 100 µM (inactive) | > 100 µM (inactive) | > 100 µM (inactive) | > 100 µM (inactive) | > 100 µM (inactive) | > 100 µM (inactive) | > 100 µM (inactive) | > 100 µM (inactive) | > 100 µM (inactive) | > 100 µM (inactive) | > 100 µM (inactive) | > 100 µM (inactive) | > 100 µM (inactive) | > 100 µM (inactive)
5 | Cc1ccc(NC(=O)/C(Cc2cc(=O)oc3cc(O)ccc23)=N\NC(=O)C[N+](C)(C)C)cc1C | > 100 µM (inactive) | > 100 µM (inactive) | > 100 | > 100 µM (inactive) | > 100 µM (inactive) | > 100 µM (inactive) | > 100 µM (inactive) | > 100 µM (inactive) | > 100 µM (inactive) | > 100 µM (inactive) | > 100 µM (inactive) | > 100 µM (inactive) | > 100 µM (inactive) | > 100 µM (inactive) | > 100 µM (inactive) | > 100 µM (inactive) | > 100 µM (inactive) | > 100 µM (inactive)
6 | COc1ccc(C(=O)/C=C/c2ccc(OCC(=N)N)cc2)cc1 | > 10 µM (inactive) | 4.55 µM (inactive) | 17.2 |  | 3.44 µM (inactive) | 12.6 µM (inactive) | 12.9 µM (inactive) | 19.3 µM (inactive) | 16.7 µM (inactive) | 17.9 µM (inactive) | 17.3 µM (inactive) | 5 µM (inactive) | 21.4 µM (inactive) | 13.9 µM (inactive) | 15.2 µM (inactive) | 17 µM (inactive) | 14.7 µM (inactive) | 
7 | CC(=O)OCC1OC(N2C(S)=C(C#N)C(c3ccco3)C(C(C)=O)=C2c2ccccc2)C(OC(C)=O)C(OC(C)=O)C1OC(C)=O (centres undefined) | 40.9 µM (inactive) | 51.9 µM (inactive) | > 100 | > 100 µM (inactive) | > 100 µM (inactive) | > 100 µM (inactive) | > 100 µM (inactive) | > 100 µM (inactive) | 26.2 µM (inactive) | 52.5 µM (inactive) | 29 µM (inactive) | > 100 µM (inactive) | > 100 µM (inactive) | 39.3 µM (inactive) | 32.9 µM (inactive) | 94.6 µM (inactive) | 13.4 µM (inactive) | > 100 µM (inactive)
8 | O=C1CCCCC/C1=C\c1cccc([N+](=O)[O-])c1 | 36.1 µM (inactive) | 22.2 µM (inactive) |  | 17.7 µM (inactive) | 31.9 µM (inactive) | 25 µM (inactive) | 23.8 µM (inactive) | 32.7 µM (inactive) | 53.7 µM (inactive) | 28.5 µM (inactive) | 18.4 µM (inactive) | 11.6 µM (inactive) | 33.7 µM (inactive) | 27.4 µM (inactive) |  | 26.5 µM (inactive) |  | 29.6 µM (inactive)
